Experiments:
[1] = molecular target: T1, Taste receptor type 2 member 46 (Homo sapiens, UniProt P59540); assay: Activity at recombinant human N-terminal rat ST3 receptor-fused TAS2R46 expressed in HEK293T cells co-expressing Galpha16gust44 assessed as activation of 3 uM strychnine-induced intracellular calcium level by FLIPR assay; assay type: functional, cell-based
T1 sequence (P59540 whole entry): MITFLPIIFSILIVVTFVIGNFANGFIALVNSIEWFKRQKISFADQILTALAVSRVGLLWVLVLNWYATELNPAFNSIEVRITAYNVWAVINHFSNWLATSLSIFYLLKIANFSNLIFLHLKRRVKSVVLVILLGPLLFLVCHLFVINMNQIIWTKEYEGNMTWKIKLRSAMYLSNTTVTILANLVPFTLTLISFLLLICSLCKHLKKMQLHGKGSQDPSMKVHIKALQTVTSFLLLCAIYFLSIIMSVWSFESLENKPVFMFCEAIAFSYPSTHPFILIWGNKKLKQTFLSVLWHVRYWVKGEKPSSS

[2] = molecular target: T1, Taste receptor type 2 member 46; assay: Antagonist activity at recombinant human N-terminal rat ST3 receptor-fused TAS2R46 expressed in HEK293T cells co-expressing Galpha16gust44 assessed as inhibition of 3 uM strychnine-induced intracellular calcium level by FLIPR assay; assay type: functional, cell-based

| Compound | EC50 [1] [µM] | IC50 [2] [µM] |
| --- | --- | --- |
| CC(=O)O[C@H]1C/C=C(\C)CCC2[C@H](C)C(=O)O[C@@H]2/C=C/1C (some centres undefined) | 1.1 | – |
| C/C1=C\[C@H]2OC(=O)[C@@H](C)C2CC/C(C)=C/CC1 (some centres undefined) | 8.3 | – |
| C/C1=C\CC(=O)/C(C)=C/[C@H]2OC(=O)[C@@H](C)C2CC1 (some centres undefined) | – | 97.8 |
| C=C1C(=O)O[C@@H]2/C=C(\C)CC/C=C(\C)CCC12 (some centres undefined) | 8.6 | – |

From ChEMBL document CHEMBL4421717, “Antagonists and agonists of bitter taste receptors and uses thereof” (2012)
